Results published in ChEMBL document CHEMBL1201862, “PubChem BioAssay data set” (2004).
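Assay format: 96-well plates, 48-hour exposure. GI50 marks 50% less growth.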 The source made the active and inactive calls. No stated cut-off is given here; in the data, active = GI50 up to about 1.1 µM and inactive = higher.

Key:
Experiment in all cases: DTP human tumour cell line panel, 48 h
ACHN = test system: ACHN
BT-549 = test system: BT-549
CAKI-1 = test system: CAKI-1
DU-145 = test system: DU-145
Hs-578T = test system: Hs-578T
MDA-MB-231 = test system: MDA-MB-231
MDA-MB-435 = test system: MDA-MB-435
MDA-N = test system: MDA-N
OVCAR-3 = test system: OVCAR-3
RXF 393 = test system: RXF 393
SK-MEL-2 = test system: SK-MEL-2
T47D = test system: T47D
DLD-1 = test system: DLD-1
DMS-114 = test system: DMS-114
HL-60 = test system: HL-60
HOP-18 = test system: HOP-18
M19-MEL = test system: M19-MEL
NCI-H522 = test system: NCI-H522
XF498 = test system: XF498
LXFL 529 = test system: LXFL 529

Structure (SMILES) | GI50 (ACHN) | GI50 (BT-549) | GI50 (CAKI-1) | GI50 (DU-145) | GI50 (Hs-578T) | GI50 (MDA-MB-231) | GI50 (MDA-MB-435) | GI50 (MDA-N) | GI50 (OVCAR-3) | GI50 (RXF 393) | GI50 (SK-MEL-2) | GI50 (T47D) | GI50 (DLD-1) | GI50 (DMS-114) | GI50 (HL-60) | GI50 (HOP-18) | GI50 (M19-MEL) | GI50 (NCI-H522) | GI50 (XF498) | GI50 (LXFL 529)
O=C1CC(=O)N(c2ccccc2)N1/C(=C/c1ccccc1)c1ccccc1 | 25.8 µM (inactive) | 23.6 µM (inactive) | 17.3 µM (inactive) | 24.4 µM (inactive) | 17.3 µM (inactive) | 10.6 µM (inactive) | 18.9 µM (inactive) | 13.6 µM (inactive) | 20.3 µM (inactive) | 16.7 µM (inactive) | 23.7 µM (inactive) | 21.3 µM (inactive) |  |  |  |  |  |  |  | 
NC(=O)NN=C(CS)CS |  |  | 23.6 µM (inactive) |  |  |  |  |  | 23.3 µM (inactive) | 40.2 µM (inactive) | 20.8 µM (inactive) |  | 34 µM (inactive) | 30.5 µM (inactive) | 0.41 µM (active) | 26.7 µM (inactive) | 17.5 µM (inactive) | 22.6 µM (inactive) | < 0.01 µM (active) | 
O1C2C1C1OC1C1OC1C1OC21 (centres undefined) | > 100 µM (inactive) | > 100 µM (inactive) | > 100 µM (inactive) | > 100 µM (inactive) | > 100 µM (inactive) | > 100 µM (inactive) | > 100 µM (inactive) | > 100 µM (inactive) |  |  | > 100 µM (inactive) | > 100 µM (inactive) |  |  |  |  |  | > 100 µM (inactive) |  | 
CCOC(=O)NC(=O)c1cn(CCNCCO)c(=O)[nH]c1=O | > 100 µM (inactive) |  | > 100 µM (inactive) |  |  |  |  |  | > 100 µM (inactive) |  | > 100 µM (inactive) |  | > 100 µM (inactive) | > 100 µM (inactive) | > 100 µM (inactive) |  | > 100 µM (inactive) | > 100 µM (inactive) | > 100 µM (inactive) | > 100 µM (inactive)
Nc1ncnc2c1sc1nc3ccccc3n12 | 57.7 µM (inactive) | 80 µM (inactive) | 33.7 µM (inactive) | > 100 µM (inactive) | 12.2 µM (inactive) | 44.8 µM (inactive) | > 100 µM (inactive) |  | > 100 µM (inactive) | 12.8 µM (inactive) | > 100 µM (inactive) | > 100 µM (inactive) |  |  |  |  |  | > 43.2 µM (inactive) |  | 
CC(=O)Nc1ccc(C(=O)NN2C(=O)C(Cl)C2/C=C/c2ccccc2)cc1 (centres undefined) | > 100 µM (inactive) |  |  |  |  |  |  |  | > 100 µM (inactive) |  | > 100 µM (inactive) |  | > 100 µM (inactive) |  | > 100 µM (inactive) | > 100 µM (inactive) | > 100 µM (inactive) | > 100 µM (inactive) |  | > 100 µM (inactive)
Cn1c(=O)[nH]c2c(c1=O)C(=O)CN2 | > 10 µM (inactive) |  | > 100 µM (inactive) |  |  |  |  |  |  | > 100 µM (inactive) | > 100 µM (inactive) |  | > 100 µM (inactive) | > 100 µM (inactive) | > 100 µM (inactive) | > 100 µM (inactive) | > 100 µM (inactive) |  | > 100 µM (inactive) | > 100 µM (inactive)
CCSc1nc(N)c2c(-c3ccccc3)c3c(nc2n1)CCC3 | > 100 µM (inactive) | > 100 µM (inactive) | > 100 µM (inactive) | > 100 µM (inactive) | > 100 µM (inactive) | > 100 µM (inactive) | > 100 µM (inactive) | > 100 µM (inactive) | > 100 µM (inactive) | > 100 µM (inactive) |  | > 100 µM (inactive) |  |  | > 100 µM (inactive) |  |  |  |  | 
